Here are results for 14 molecules from US5464820A, “Specific inhibitors of tissue kallikrein” (priority 1993, dated 1995).

The target in data set [1] is porcine pancreatic kallikrein (PPK) (Sus scrofa, UniProt P00752). The experiment in a line: Inhibition of porcine pancreatic kallikrein, cleavage of chromogenic substrate S-2266 (KI). The data set is classed as biochemical.
For data set [2], the target named is T1, human urinary kallikrein (HUK) (Homo sapiens, UniProt P06870).
T1 construct: Human urinary kallikrein (HUK) was purified from human urine; from tissue
In words: Inhibition of human urinary (tissue) kallikrein (KI). The data set is classed as biochemical. The procedure: Human urinary kallikrein (HUK) was purified from human urine. Briefly, urine was subjected to ultrafiltration to concentrate the protein components which were applied to approtinin-CH-Sepharose affinity columns. Active fractions from these columns were next applied to Sephadex G-100 gel filtration and collected as fractions. The pH of each fraction was determined immediately upon elution, and the fraction was neutralized by addition of 2.0 ml of 2M Tris-HCL buffer, pH 8.0. Porcine pancreatic 24-kallikrein (PPK), at 50 units/mg protein; 1.0 units hydrolyses 1.0 μM BAEE (benzoyl -L-arginine ethyl ester) to N-a-benzoyl-L-arginine/minute at pH 8.7 at 25° C., was purchased from Sigma Chemical Company (St. Louis, Mo.). […] All other enzymes were purchased from Sigma Chemical Company (St. Louis, Mo.).
Dixon plots were used for data reduction and for calculation of […].
(§1) Assay methods were based on the cleavage of chromogenic substrate S-2266 (D-Val-Leu-Arg-pNA) (Kabi; Charlotte, N.C.) by porcine pancreatic kallikrein (Sigma Chemical Company; St. Louis, Mo.) to yield an increase in absorbance at 405 nm. By changing the substrate and enzyme, the general method has been extended to measure the inhibition of human tissue kallikrein (HTK or human urinary kallikrein HUK), human plasma kallikrein (HPK), plasmin, and urokinase (UK). In all assays, the robot dilutes the inhibitor into a series of wells and adds substrate and buffer. Chromogenic reactions are started by the addition of enzyme. Changes in the absorbance at 405 nm in an array of wells were recorded. All manipulations were performed by the instrument from reservoirs containing substrate, inhibitor, diluent (water), buffer, or enzyme.

Data set [3] addresses human plasma kallikrein (HPK) (Homo sapiens, UniProt P03952). In words: Inhibition of human plasma kallikrein (KI). It is filed as biochemical.
From the text: as §1

Data set [4] has as its target T2, urokinase (UK) (Homo sapiens, UniProt P00749).
T2 construct: purchased Sigma Chemical Company (St. Louis, Mo.)
The experiment in a line: Inhibition of urokinase (KI). It is filed as biochemical. The conditions noted are these: Table 7; read-out: K1 UK.
From the text: as §1

Data set [5] is described as follows: Measured lipophilicity (KO/W). It is filed as physicochemical. The conditions noted are these: Table 2, measured lipophilicity, change relative to Gly analog. The source says: Listed in Table 2 are KI values along with changes in volume (ΔV), measured lipophilicity (ΔKO/W), and calculated lipophilicity (ΔCLOGP). Some of the substrates containing a D-amino acid residue at P3 are rapidly hydrolyzed by tissue kallikrein. To overcome this problem, a new method was also used to determine KI (see Example 6).

Where [6] appears, read: Table 4, Pro-X-Arg-Ser-Val-Gln, read-out: KI PPK.
[7] abbreviates: Table 4, Pro-X-Arg-Ser-Val-Gln, read-out: KI HUK.
[8] abbreviates: Table 4, Pro-X-Arg-Ser-Val-Gln, read-out: KI HPK.
[9] abbreviates: Table 7, in mM, read-out: K1 PPK.
Setting [10] is: Table 7, in mM, read-out: K1 HPK.

Like-named read-outs stand apart in the source and are kept apart here. Starred links: 1 amine or outer side, 2 acyl side, 3 side chain; linkers in the order of their positions; H or OH if unused. Non-standard residues stand in square brackets, D forms with d. Residues, ends and D or L forms follow the SMILES beside them. X3 = O=C([C@H](N[*:1])C12CC3CC(CC(C3)C1)C2)[*:2]; Phe(4-NH2) = Nc1ccc(C[C@H](N)C(=O)O)cc1; 1Nal = N[C@@H](Cc1cccc2ccccc12)C(=O)O; 2Nal = N[C@@H](Cc1ccc2ccccc2c1)C(=O)O; X2 = CCC(CC)[C@@H](N[*:1])C(=O)[*:2]; 2Thi = N[C@@H](Cc1cccs1)C(=O)O; Cha = N[C@@H](CC1CCCCC1)C(=O)O; Orn = NCCC[C@H](N)C(=O)O

human plasma kallikrein (HPK), sequence (P03952 20-638): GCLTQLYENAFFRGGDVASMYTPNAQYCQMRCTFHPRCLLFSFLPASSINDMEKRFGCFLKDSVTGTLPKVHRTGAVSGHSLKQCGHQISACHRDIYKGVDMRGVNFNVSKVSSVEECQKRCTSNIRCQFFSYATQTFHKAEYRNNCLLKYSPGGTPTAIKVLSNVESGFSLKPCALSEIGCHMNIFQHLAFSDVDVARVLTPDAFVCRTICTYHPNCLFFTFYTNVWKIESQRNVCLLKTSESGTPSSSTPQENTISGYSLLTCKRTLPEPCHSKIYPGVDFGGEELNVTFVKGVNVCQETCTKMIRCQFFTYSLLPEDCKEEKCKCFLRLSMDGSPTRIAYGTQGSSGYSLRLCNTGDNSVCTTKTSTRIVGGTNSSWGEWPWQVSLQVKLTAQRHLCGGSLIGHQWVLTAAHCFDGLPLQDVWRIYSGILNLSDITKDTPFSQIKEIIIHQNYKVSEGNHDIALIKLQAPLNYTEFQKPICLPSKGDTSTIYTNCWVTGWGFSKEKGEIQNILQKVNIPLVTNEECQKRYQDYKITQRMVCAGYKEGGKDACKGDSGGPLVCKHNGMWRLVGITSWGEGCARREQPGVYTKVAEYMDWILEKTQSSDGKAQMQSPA
T1 sequence (P06870 25-262): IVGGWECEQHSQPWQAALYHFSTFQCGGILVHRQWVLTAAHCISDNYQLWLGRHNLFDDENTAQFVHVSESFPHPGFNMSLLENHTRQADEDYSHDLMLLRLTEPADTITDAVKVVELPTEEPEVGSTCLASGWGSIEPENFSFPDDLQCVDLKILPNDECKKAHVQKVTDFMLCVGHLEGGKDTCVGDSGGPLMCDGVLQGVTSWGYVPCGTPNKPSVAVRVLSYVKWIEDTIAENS
porcine pancreatic kallikrein (PPK), sequence (P00752 8-87 limits assumed): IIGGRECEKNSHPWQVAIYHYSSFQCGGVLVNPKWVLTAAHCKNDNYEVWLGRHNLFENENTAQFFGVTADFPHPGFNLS
porcine pancreatic kallikrein (PPK), sequence (P00752 95-246 limits assumed): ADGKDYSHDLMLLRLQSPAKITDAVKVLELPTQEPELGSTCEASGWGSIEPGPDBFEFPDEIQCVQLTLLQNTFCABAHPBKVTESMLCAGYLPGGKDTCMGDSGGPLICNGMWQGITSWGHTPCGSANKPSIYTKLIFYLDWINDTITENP

For `CC(C)[C@H](NC(=O)[C@H](CO)NC(=O)[C@H](CCCNC(=N)N)NC(=O)[C@H](Cc1cccs1)NC(=O)[C@@H]1CCCN1)C(=O)N[C@@H](CCC(N)=O)C(N)=O` [KCH-4] (H-P[2Thi]RSVQ-NH2), the values for the Ki in data set [1] (setting [6]), in data set [2] (setting [7]) and in data set [3] (setting [8]) were 0.109 mM, 249 µM and 0.497 mM, respectively.
On the same counts, the results for `CC(C)[C@H](NC(=O)[C@H](CO)NC(=O)[C@H](CCCNC(=N)N)NC(=O)[C@H](Cc1ccc2ccccc2c1)NC(=O)[C@@H]1CCCN1)C(=O)N[C@@H](CCC(N)=O)C(N)=O` [KCH-6] (H-P[2Nal]RSVQ-NH2) are 0.133 mM, 114 µM and 0.665 mM.
With `CC(C)[C@H](NC(=O)[C@H](CO)NC(=O)[C@H](CCCNC(=N)N)NC(=O)[C@H](Cc1cccc2ccccc12)NC(=O)[C@@H]1CCCN1)C(=O)N[C@@H](CCC(N)=O)C(N)=O` [KCH-7] (H-P[1Nal]RSVQ-NH2), the Ki in data set [1] (setting [6]) was 0.13 mM; in data set [2] (setting [7]), 41 µM; in data set [3] (setting [8]) it was 0.516 mM.
On the same counts, the results for `CC(C)[C@H](NC(=O)[C@H](CO)NC(=O)[C@H](CCCNC(=N)N)NC(=O)[C@H](CC1CCCCC1)NC(=O)[C@@H]1CCCN1)C(=O)N[C@@H](CCC(N)=O)C(N)=O` [KCH-10] (H-P[Cha]RSVQ-NH2) are 0.085 mM, 92 µM and 0.813 mM.
For the molecule `CC(C)[C@H](NC(=O)[C@H](CO)NC(=O)[C@H](CCCCN)NC(=O)[C@H](Cc1ccccc1)NC(=O)[C@@H]1CCCN1)C(=O)N[C@@H](CCC(N)=O)C(N)=O` [KIDZ-2, Pro-Phe-Lys-Ser-Val-Gln] (H-PFKSVQ-NH2), the Ki in data set [1] (Table 7, read-out: K1 PPK) is 0.294 mM; in data set [4], more than 20000 µM; in data set [3] (Table 7, read-out: K1 HPK), 2.5 mM.
As to `CC(C)[C@H](NC(=O)[C@H](CO)NC(=O)[C@H](CCCN)NC(=O)[C@H](Cc1ccccc1)NC(=O)[C@@H]1CCCN1)C(=O)N[C@@H](CCC(N)=O)C(N)=O` [KIDZ-3, Pro-Phe-Orn-Ser-Val-Gln] (H-PF[Orn]SVQ-NH2), the Ki in data set [1] (setting [9]) is more than 5 mM; in data set [4], more than 20000 µM; in data set [3] (setting [10]), more than 5 mM.
`CC(C)[C@H](NC(=O)[C@H](CO)NC(=O)[C@H](Cc1ccc(N)cc1)NC(=O)[C@H](Cc1ccccc1)NC(=O)[C@@H]1CCCN1)C(=O)N[C@@H](CCC(N)=O)C(N)=O` [KIDZ-6, Pro-Phe-Aph-Ser-Val-Gla] (H-PF[Phe(4-NH2)]SVQ-NH2): the Ki was 0.036 mM in data set [1] (Table 7, read-out: K1 PPK); less than 0.05 mM in data set [1] (text b391, read-out: PPK KI); 21 µM in data set [2] (Table 7, read-out: K1 HUK); less than 50 µM in data set [2] (text b391, read-out: HUK KI); more than 20000 µM in data set [4]; more than 10 mM in data set [3] (setting [10]).
Consider `CC(C)[C@H](NC(=O)[C@H](CO)NC(=O)[C@H](Cc1c[nH]cn1)NC(=O)[C@H](Cc1ccccc1)NC(=O)[C@@H]1CCCN1)C(=O)N[C@@H](CCC(N)=O)C(N)=O` [KIDZ-12, Pro-Phe-His-Ser-Val-Gln] (H-PFHSVQ-NH2), for which the Ki in data set [1] (setting [9]) was more than 1 mM; in data set [4] it was more than 20000 µM; in data set [3] (setting [10]), more than 20 mM.
On the same counts, the results for `CSCC[C@H](NC(=O)[C@H](Cc1ccccc1)NC(=O)[C@@H]1CCCN1)C(=O)N[C@@H](CO)C(=O)N[C@H](C(=O)N[C@@H](CCC(N)=O)C(N)=O)C(C)C` [KIDZ-13, Pro-Phe-Met-Ser-Val-Gln] (H-PFMSVQ-NH2) are more than 4 mM, more than 20000 µM and more than 20 mM.
With `CC(C)[C@H](NC(=O)[C@H](CO)NC(=O)[C@H](CCCNC(=N)N)NC(=O)[C@@H](NC(=O)[C@@H]1CCCN1)[C@@H](C)O)C(=O)N[C@@H](CCC(N)=O)C(N)=O` [KIDZ-14, Pro-Thr-Arg-Ser-Val-Gln] (H-PTRSVQ-NH2), the Ki in data set [1] (Table 7, read-out: K1 PPK) is 0.4 to 0.8 mM; in data set [4], more than 20000 µM.
With `CCC(CC)[C@@H](N)C(=O)N[C@@H](Cc1ccccc1)C(=O)N[C@@H](CCCNC(=N)N)C(=O)N[C@@H](CO)C(=O)N[C@H](C(=O)N[C@@H](CCC(N)=O)C(N)=O)C(C)C` [KKI-87, [D-Ile(4Me)]-Phe-Arg-Ser-Val-Gln] (H-[X2]FRSVQ-NH2; N-terminus assumed), the “ΔLog KO/W” value in data set [5] is 1.11.
On the same count and under the same terms, next, `CC(C)[C@H](NC(=O)[C@H](CO)NC(=O)[C@H](CCCNC(=N)N)NC(=O)[C@H](Cc1ccccc1)NC(=O)[C@H](N)C12CC3CC(CC(C3)C1)C2)C(=O)N[C@@H](CCC(N)=O)C(N)=O` [KKI-88, [D-Adg]-Phe-Arg-Ser-Val-Gln] (H-[X3]FRSVQ-NH2; N-terminus assumed): 1.88.
Take `N=C(N)NCCC[C@H](NC(=O)[C@H](CO)NC(=O)[C@H](CO)NC(=O)[C@H](CCCNC(=N)N)NC(=O)[C@H](Cc1ccccc1)NC(=O)[C@@H]1CCCN1)C(N)=O` [Pro-Phe-Arg-Ser-Ser-Arg] (H-PFRSSR-NH2): the Ki amounted to 0.06 mM in data set [1] (Table 6, read-out: KI PPK); 54 µM in data set [2] (Table 6, first HUK column, read-out: KI HUK); 0.49 mM in data set [3] (Table 6, HUK, read-out: KI HUK).
For Pro-Map-Aph-Ser-Val-Gln [KIDZ-15], the “selectivity for tissue kallikrein over plasma kallikrein or urokinase” value in data set [1] (Table 7) is given as “selectivity for tissue kallikrein over plasma kallikrein or urokinase”. For the same molecule, the Ki in data set [1] (Table 7, read-out: K1 PPK) is 0.11 mM; in data set [4], more than 20000 µM; in data set [3] (setting [10]), more than 20 mM.
